# Laboratory results published in patent publication US7087385B2, “Promoter sequences for urocortin II and the use thereof” (Wisconsin Alumni Research Foundation, priority 2002, dated 2006).
# Where no end group is shown, it is not given here.
# What was measured:
# human UCN II promoter [1] = assay: Dexamethasone induced expression from UCN II promoter fragments in CHO-K1 cultures; type: cell-based, hamster; details: 20 μM dexamethasone, 22 h
# Description: (§1) The above constructs containing the human UCN II promoter fragments placed upstream of the firefly luciferase gene can be used to transfect immortalized cell lines. The constructs can be transfected into CHO-K1 cell lines using Lipofectamine 2000 (Invitrogen Life Technologies). Primary cultures of the central nervous system, as well as additional immortalized cell lines, are also appropriate for these transfections. To control for transfection efficiency, the cells can also be co-transfected with the pRL-TK vector (Promega). The pRL-TK vector contains the Renilla luciferase gene downstream of the herpes simplex virus thymidine kinase promoter, a promoter which provides low to moderate levels of expression. Cell lysates can be assayed for total protein using the BCA assay (Pierce, Rockford, Ill.) to standardize for the protein extraction. The level of reporter gene expression from a standardized amount of cell extract can be quantified by measuring luciferase activity using a luminometer (EG&G Wallac, Gaithersburg, Md.) and the dual-luciferase reporter assay system (Promega). Firefly luciferase activity reflects UCN II promoter activity and Renilla luciferase activity can be used to normalize data between experiments.
# Using the methods described previously, CHO-K1 cultures were transiently transfected with the UCN II promoter constructs. […]
# human UCN II promoter [2] = assay: Dexamethasone induced expression from UCN II promoter fragments in CATH.a cultures; type: cell-based, mouse; details: 20 μM dexamethasone, 22 h
# Description: as §1
# In the following experiments, we confirmed the dexamethasone treatment results in the CATH.a cell line. Using the methods described previously, CATH.a cultures were transiently transfected with the UCN II promoter constructs. Immediately following transfection equal numbers of cultures (N=12 per group) were treated with either 20 μM dexamethasone or were given vehicle. Twenty-two hours following treatment, the cultures were harvested and assayed for luciferase activity (see FIG. 7).
# human UCN II promoter [3] = assay: CRF induced expression from UCN II promoter fragments in CATH.a cultures; type: cell-based; details: 1 μM CRF, 22 h
# Description: as §1
# Using the methods described previously, CATH.a cultures were transiently transfected with the UCN II promoter constructs. Immediately following transfection equal numbers of cultures (N=4 per group) were treated with either 1 μM CRF or with vehicle. Twenty-two hours following treatment, the cultures were harvested and assayed for luciferase activity (see FIG. 8). CATH.a cultures are known to express CRF receptors and both CRF and UCN II are known ligands for the receptors. […] The goal of the present experiment was to determine if CRF receptor-dependent second messenger system activation affected UCN II gene expression.
Molecule,"decrease in expression compared to vehicle, −1426 construct (human UCN II promoter [1]) [%]",expression within the remaining constructs vs vehicle (human UCN II promoter [1]),"decrease in expression compared to vehicle, −1426 construct (human UCN II promoter [2]) [%]","decrease in expression compared to vehicle, −1987 construct (human UCN II promoter [2]) [%]",expression within the remaining constructs vs vehicle (human UCN II promoter [2]),expression within the remaining constructs vs vehicle (human UCN II promoter [3]),"increase in expression over vehicle, −1426 construct (human UCN II promoter [3]) [%]","increase in expression over vehicle, −1987 construct (human UCN II promoter [3]) [%]","expression within the −1987 and −1426 constructs vs vehicle (human UCN II promoter [3]; P<0.05 for −1987, P<0.001 for −1426, preliminary data)"
C[C@@H]1C[C@H]2[C@@H]3CCC4=CC(=O)C=C[C@]4(C)[C@@]3(F)[C@@H](O)C[C@]2(C)[C@@]1(O)C(=O)CO [dexamethasone],15,no significant effect,39,29,no effect,,,,
"corticotropin-releasing factor (SEEPPISLDLTFHLLREVLEMARAEQLAQQAHSNRKLMEII; ends and bridges not checked; UniProt P06850 154-194, looked up) [CRF, neurotransmitter peptide, ligand of CRF receptors]",,,,,,no significant effect,52,29,significantly increased expression
